Biological target: α4β7 integrin (Homo sapiens (Human), UniProt P13612+P26010)
Experiment: MAdCAM-1/α4β7 integrin binding inhibitory activity evaluation test in the presence of serum (2)
Type: cell-based
Details: RPMI-8866 cells binding to mouse MAdCAM-1/Fc, same manner as Test (3), read-out: α4β7 Rank of activity with serum added
Experimental: The ability of test substances to inhibit the binding of a human B cell line, RPMI-8866, which is known to express α4β7 integrin, to MAdCAM-1 was measured.
To 96-well microtiter plates, recombinant mouse MAdCAM-1/Fc (R&D systems) solution (1 μg/mL) diluted with buffer A (carbonate buffer, pH 9.6) was added at 50 μL/well, followed by incubation at 4° C. overnight. After washing once with PBS, Block Ace (Snow Brand Milk Products Company, Limited) was added at 150 μL/well, followed by incubation at room temperature for 2 hours. After removal, washing was conducted once with PBS.
100 μL of each test substance diluted with a binding buffer (DMEM containing 40 mM HEPES, 0.2% BSA, and 4 mM MnCl2) to various concentrations and 100 μL of RPMI-8866 cells (2×10^6 cell/mL) were added to plates coated with MAdCAM-1/Fc (5×10^5 cells/well) with human serum being contained at a final concentration of 50%, followed by incubation at 30° C. for 15 minutes to 60 minutes. After the cells were bound to each well, unbound cells were removed by washing with PBS. To the plates, buffer C (PBS containing 1.5% Triton X-100) was added at 50 μL/well to lyse the bound RPMI-8866 cells. To 30 μL of the cell lysate, 30 μL of Substrate Buffer (Promega, CytoTox 96 Non-Radioactive Cytotoxicity Assay) was added, and the reaction was allowed to proceed at room temperature in a dark place for 30 minutes. To each well, 30 μL of Stop Solution (Promega, CytoTox 96 Non-Radioactive Cytotoxicity Assay) was added, and the absorbance at 490 nm was measured by using a plate reader. Here, by the obtained absorbance, the activity of the lactate dehydrogenase (LDH) dissolved into the supernatant of each well was detected. In other words, the absorbance was proportional to the number of the RPMI-8866 cells bound to MAdCAM-1 and remaining on the plate. The test was duplicated. The binding ratios of the cells at various concentrations were determined, with the absorbance of a well containing no test substance taken as 100%. Then, the concentration IC50, at which 50% binding inhibition was achieved, was calculated.
The MAdCAM-1/α4β7 integrin binding inhibitory activity in the presence of serum was measured in the same manner as in Test (3) described above. […] The VCAM-1/α4β1 integrin binding inhibitory activity evaluation test and the MAdCAM-1/α4β7 integrin binding inhibitory activity evaluation test were carried out according to the methods described in Tests (1) and (2) described above.

Chain of α4β7 integrin (P13612 34-1032): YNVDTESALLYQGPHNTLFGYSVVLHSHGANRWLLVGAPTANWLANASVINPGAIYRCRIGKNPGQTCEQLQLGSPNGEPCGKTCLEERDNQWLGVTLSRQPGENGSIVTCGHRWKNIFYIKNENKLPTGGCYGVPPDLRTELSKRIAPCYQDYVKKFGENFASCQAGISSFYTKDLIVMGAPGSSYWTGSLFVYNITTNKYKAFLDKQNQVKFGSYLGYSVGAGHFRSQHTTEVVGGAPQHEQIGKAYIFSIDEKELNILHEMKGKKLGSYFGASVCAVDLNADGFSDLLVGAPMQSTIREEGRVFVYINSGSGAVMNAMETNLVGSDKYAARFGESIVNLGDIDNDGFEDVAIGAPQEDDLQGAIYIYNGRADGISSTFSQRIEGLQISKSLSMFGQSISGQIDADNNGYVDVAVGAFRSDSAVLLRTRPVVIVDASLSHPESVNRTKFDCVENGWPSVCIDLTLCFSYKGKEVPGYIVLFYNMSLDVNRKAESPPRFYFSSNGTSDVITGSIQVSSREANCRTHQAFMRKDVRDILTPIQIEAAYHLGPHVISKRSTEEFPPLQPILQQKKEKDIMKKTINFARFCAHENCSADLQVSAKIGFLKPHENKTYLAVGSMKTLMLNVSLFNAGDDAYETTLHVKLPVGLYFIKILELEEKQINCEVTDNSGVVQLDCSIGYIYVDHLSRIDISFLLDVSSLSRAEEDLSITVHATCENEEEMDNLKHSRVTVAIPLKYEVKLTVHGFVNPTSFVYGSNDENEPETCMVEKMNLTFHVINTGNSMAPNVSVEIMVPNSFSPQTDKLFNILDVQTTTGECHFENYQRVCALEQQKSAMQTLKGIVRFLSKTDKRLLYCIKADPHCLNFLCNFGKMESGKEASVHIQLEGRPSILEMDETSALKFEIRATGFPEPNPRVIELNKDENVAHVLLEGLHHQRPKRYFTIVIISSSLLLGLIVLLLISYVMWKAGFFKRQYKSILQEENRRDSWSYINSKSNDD
Chain of α4β7 integrin (P26010 20-798): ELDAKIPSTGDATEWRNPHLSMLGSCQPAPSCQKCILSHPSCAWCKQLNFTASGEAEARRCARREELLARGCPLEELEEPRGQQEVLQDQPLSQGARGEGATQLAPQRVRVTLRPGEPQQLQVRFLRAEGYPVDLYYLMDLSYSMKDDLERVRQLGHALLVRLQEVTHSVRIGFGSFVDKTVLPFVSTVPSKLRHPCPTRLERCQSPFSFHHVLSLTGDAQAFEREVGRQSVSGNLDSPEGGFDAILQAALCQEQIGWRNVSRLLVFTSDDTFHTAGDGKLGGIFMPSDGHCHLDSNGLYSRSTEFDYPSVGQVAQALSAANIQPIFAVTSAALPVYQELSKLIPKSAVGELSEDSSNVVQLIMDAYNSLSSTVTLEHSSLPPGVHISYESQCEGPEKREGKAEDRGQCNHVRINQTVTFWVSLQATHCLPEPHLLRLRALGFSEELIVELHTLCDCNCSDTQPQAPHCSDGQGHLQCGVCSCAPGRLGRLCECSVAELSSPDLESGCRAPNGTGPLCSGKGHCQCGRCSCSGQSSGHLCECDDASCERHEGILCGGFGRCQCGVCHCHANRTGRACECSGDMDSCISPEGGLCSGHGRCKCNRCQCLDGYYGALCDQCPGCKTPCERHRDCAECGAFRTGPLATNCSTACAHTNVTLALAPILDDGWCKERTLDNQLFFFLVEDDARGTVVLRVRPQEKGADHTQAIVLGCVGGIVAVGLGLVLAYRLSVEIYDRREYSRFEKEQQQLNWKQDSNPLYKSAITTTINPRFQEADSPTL

Row | SMILES | IC50 [nM]
1 | CNCc1ccc(S(=O)(=O)Nc2ccc(C(=O)N[C@@H](Cc3ccc(-n4c(=O)c5ccncc5n(C)c4=O)cn3)C(=O)O)c(F)c2)cc1 [Example 177, N-{2-Fluoro-4-[({4-[(methylamino)methyl]phenyl}sulfonyl)amino]benzoyl}-3-[5-(1-methyl-2,4-dioxo-1,4-dihydropyrido[3,4-d]pyrimidin-3(2H)-yl)pyridin-2-yl]-L-alanine] | 10 to 50
2 | Cn1c(=O)n(-c2ccc(C[C@H](NC(=O)c3c(F)cc(NS(=O)(=O)c4ccc(-c5ccsc5)cc4)cc3F)C(=O)O)nc2)c(=O)c2ccncc21 [Example 178, N-[2,6-Difluoro-4-({[4-(3-thienyl)phenyl]sulfonyl}amino)benzoyl]-3-[5-(1-methyl-2,4-dioxo-1,4-dihydropyrido[3,4-d]pyrimidin-3(2H)-yl)pyridin-2-yl]-L-alanine] | 10 to 50
3 | Cn1c(=O)n(-c2ccc(C[C@H](NC(=O)c3ccc(NS(=O)(=O)c4cc[n+]([O-])cc4)cc3F)C(=O)O)cc2)c(=O)c2cc[n+]([O-])cc21 [Example 179, (2S)-2-[[2-Fluoro-4-[(1-oxidopyridin-1-ium-4-yl)sulfonylamino]benzoyl]amino]-3-[4-(1-methyl-7-oxido-2,4-dioxo-pyrido[3,4-d]pyrimidin-7-ium-3-yl)phenyl]propanoic Acid] | ≤ 10
4 | Cc1cc(CNC(C)(C)C)ccc1S(=O)(=O)Nc1ccc(C(=O)N[C@@H](Cc2ccc(-n3c(=O)c4ccncc4n(C)c3=O)cc2)C(=O)O)c(F)c1 [Example 180, N-{4-[({4-[(tert-Butylamino)methyl]-2-methylphenyl}sulfonyl)amino]-2-fluorobenzoyl}-4-(1-methyl-2,4-dioxo-1,4-dihydropyrido[3,4-d]pyrimidin-3(2H)-yl)-L-phenylalanine] | ≤ 10
5 | Cc1cc(CNC2CCCC2)ccc1S(=O)(=O)Nc1ccc(C(=O)N[C@@H](Cc2ccc(-n3c(=O)c4ccncc4n(C)c3=O)cc2)C(=O)O)c(F)c1 [Example 181, N-{4-[({4-[(Cyclopentylamino)methyl]-2-methylphenyl}sulfonyl)amino]-2-fluorobenzoyl}-4-(1-methyl-2,4-dioxo-1,4-dihydropyrido[3,4-d]pyrimidin-3(2H)-yl)-L-phenylalanine] | 10 to 50
6 | Cn1c(=O)n(-c2ccc(C[C@H](NC(=O)c3ccc(NS(=O)(=O)c4ccc[nH]4)cc3F)C(=O)O)nc2)c(=O)c2ccncc21 [Example 182, N-{2-Fluoro-4-[(1H-pyrrol-2-yl-sulfonyl)amino]benzoyl}-3-[5-(1-methyl-2,4-dioxo-1,4-dihydropyrido[3,4-d]pyrimidin-3(2H)-yl)pyridin-2-yl]-L-alanine] | 10 to 50
7 | Cn1c(=O)n(-c2ccc(C[C@H](NC(=O)c3ncc(NS(=O)(=O)c4ccco4)cc3F)C(=O)O)cc2)c(=O)c2ccncc21 [Example 183, N-({3-Fluoro-5-[(2-furylsulfonyl)amino]pyridin-2-yl}carbonyl)-4-(1-methyl-2,4-dioxo-1,4-dihydropyrido[3,4-d]pyrimidin-3(2H)-yl)-L-phenylalanine] | 10 to 50
8 | Cn1c(=O)n(-c2ccc(C[C@H](NC(=O)c3ncc(NS(=O)(=O)c4ccncc4)cc3F)C(=O)O)cc2)c(=O)c2ccncc21 [Example 184, N-({3-Fluoro-5-[(pyridin-4-yl-sulfonyl)amino]pyridin-2-yl}carbonyl)-4-(1-methyl-2,4-dioxo-1,4-dihydropyrido[3,4-d]pyrimidin-3(2H)-yl)-L-phenylalanine] | 10 to 50
9 | Cn1c(=O)n(-c2ccc(C[C@H](NC(=O)c3c(F)cc(NS(=O)(=O)c4ccccc4O)cc3F)C(=O)O)nc2)c(=O)c2ccncc21 [Example 185, N-(2,6-Difluoro-4-{[(2-hydroxyphenyl)sulfonyl]amino}benzoyl)-3-[5-(1-methyl-2,4-dioxo-1,4-dihydropyrido[3,4-d]pyrimidin-3(2H)-yl)pyridin-2-yl]-L-alanine] | 10 to 50
10 | Cn1c(=O)n(-c2ccc(C[C@H](NC(=O)c3cc(F)c(NS(=O)(=O)c4cccs4)cc3F)C(=O)O)cc2)c(=O)c2ccncc21 [Example 213, N-{2,5-Difluoro-4-[(2-thienylsulfonyl)amino]benzoyl}-4-(1-methyl-2,4-dioxo-1,4-dihydropyrido[3,4-d]pyrimidin-3(2H)-yl)-L-phenylalanine] | 10 to 50
11 | CCOc1ccccc1S(=O)(=O)Nc1cc(F)c(C(=O)N[C@@H](Cc2ccc(-n3c(=O)c4ccncc4n(C)c3=O)cc2)C(=O)O)c(F)c1 [Example 214, N-(4-{[(2-Ethoxyphenyl)sulfonyl]amino}-2,6-difluorobenzoyl)-4-(1-methyl-2,4-dioxo-1,4-dihydropyrido[3,4-d]pyrimidin-3(2H)-yl)-L-phenylalanine] | 10 to 50
12 | Cn1c(=O)n(-c2ccc(C[C@H](NC(=O)c3cc(F)c(NS(=O)(=O)c4ccc(-c5cncnc5)cc4)cc3F)C(=O)O)nc2)c(=O)c2ccncc21 [Example 215, N-(2,5-Difluoro-4-{[(4-pyrimidin-5-ylphenyl)sulfonyl]amino}benzoyl)-3-[5-(1-methyl-2,4-dioxo-1,4-dihydropyrido[3,4-d]pyrimidin-3(2H)-yl)pyridin-2-yl]-L-alanine] | 10 to 50
13 | Cn1ccc(=O)n(-c2ccc(C[C@H](NC(=O)c3cc(F)c(NS(=O)(=O)c4ccc(-c5cncnc5)cc4)cc3F)C(=O)O)cc2)c1=O [Example 216, N-(2,5-Difluoro-4-{[(4-pyrimidin-5-ylphenyl)sulfonyl]amino}benzoyl)-4-(3-methyl-2,6-dioxo-3,6-dihydropyrimidin-1(2H)-yl)-L-phenylalanine] | 10 to 50
14 | Cn1c(=O)n(-c2ccc(C[C@H](NC(=O)c3cc(F)c(NS(=O)(=O)c4ccc(-n5cncn5)cn4)cc3F)C(=O)O)nc2)c(=O)c2ccncc21 [Example 217, N-[2,5-Difluoro-4-({[5-(1H-1,2,4-triazol-1-yl)pyridin-2-yl]sulfonyl}amino)benzoyl]-3-[5-(1-methyl-2,4-dioxo-1,4-dihydropyrido[3,4-d]pyrimidin-3(2H)-yl)pyridin-2-yl]-L-alanine] | 10 to 50
15 | Cn1c(=O)n(-c2ccc(C[C@H](NC(=O)c3cc(F)c(NS(=O)(=O)c4ccc(-n5cnnn5)cc4)cc3F)C(=O)O)nc2)c(=O)c2ccncc21 [Example 218, N-[2,5-Difluoro-4-({[4-(1H-tetrazol-1-yl)phenyl]sulfonyl}amino)benzoyl]-3-[5-(1-methyl-2,4-dioxo-1,4-dihydropyrido[3,4-d]pyrimidin-3(2H)-yl)pyridin-2-yl]-L-alanine] | 10 to 50
16 | Cn1c(=O)n(-c2ccc(C[C@H](NC(=O)c3cc(F)c(NS(=O)(=O)c4ccc(-n5cnnc5)cc4)cc3F)C(=O)O)nc2)c(=O)c2ccncc21 [Example 219, N-[2,5-Difluoro-4-({[4-(4H-1,2,4-triazol-4-yl)phenyl]sulfonyl}amino)benzoyl]-3-[5-(1-methyl-2,4-dioxo-1,4-dihydropyrido[3,4-d]pyrimidin-3(2H)-yl)pyridin-2-yl]-L-alanine] | 10 to 50
17 | Cn1c(=O)n(-c2ccc(C[C@H](NC(=O)c3cc(F)c(NS(=O)(=O)c4ccc(-c5cncnc5)cn4)cc3F)C(=O)O)nc2)c(=O)c2ccncc21 [Example 220, N-(2,5-Difluoro-4-{[(5-pyrimidin-5-ylpyridin-2-yl)sulfonyl]amino}benzoyl)-3-[5-(1-methyl-2,4-dioxo-1,4-dihydropyrido[3,4-d]pyrimidin-3(2H)-yl)pyridin-2-yl]-L-alanine] | 10 to 50
18 | Cn1c(=O)n(-c2ccc(C[C@H](NC(=O)c3cc(F)c(NS(=O)(=O)c4ccc(-n5cncn5)cc4)cc3F)C(=O)O)cn2)c(=O)c2ccncc21 [Example 221, N-[2,5-Difluoro-4-({[4-(1H-1,2,4-triazol-1-yl)phenyl]sulfonyl}amino)benzoyl]-3-[6-(1-methyl-2,4-dioxo-1,4-dihydropyrido[3,4-d]pyrimidin-3(2H)-yl)pyridin-3-yl]-L-alanine] | 10 to 50
19 | Cn1c(=O)n(-c2ccc(C[C@H](NC(=O)c3cc(F)c(NS(=O)(=O)c4ccc(-c5ncccn5)cn4)cc3F)C(=O)O)nc2)c(=O)c2ccncc21 [Example 222, N-(2,5-Difluoro-4-{[(5-pyrimidin-2-ylpyridin-2-yl)sulfonyl]amino}benzoyl)-3-[5-(1-methyl-2,4-dioxo-1,4-dihydropyrido[3,4-d]pyrimidin-3(2H)-yl)pyridin-2-yl]-L-alanine] | 50 to 200
